Experimental data as given in US8188134B2, “Thiophene-carboxamides useful as inhibitors of protein kinases” (Vertex Pharmaceuticals Incorporated, priority 2006, dated 2012).

Target: T1, Plk1 (Homo sapiens, UniProt P53350)
T1 construct: in the presence of 15 nM Plk1 (A20-K338)
Experiment: Plk1 inhibition assay (radioactive-phosphate incorporation)
Format: biochemical
Details: Ki(app)
Description: The compounds of the present invention are evaluated as inhibitors of human PLK kinase using the following assays.
Compounds were screened for their ability to inhibit Plk1 using a radioactive-phosphate incorporation assay. Assays were carried out in a mixture of 25 mM HEPES (pH 7.5), 10 mM MgCl2, and 1 mM DTT. Final substrate concentrations were 50 μM [γ-33P]ATP (136 mCi 33P ATP/mmol ATP, Amersham Pharmacia Biotech/Sigma Chemicals) and 10 μM peptide (SAM68 protein Δ332-443). Assays were carried out at 25° C. in the presence of 15 nM Plk1 (A20-K338). An assay stock buffer solution was prepared containing all of the reagents listed above, with the exception of ATP and the test compound of interest. 30 μL of the stock solution was placed in a 96 well plate followed by addition of 2 μL of DMSO stock containing serial dilutions of the test compound (typically starting from a final concentration of 10 μM with 2-fold serial dilutions) in duplicate (final DMSO concentration 5%). The plate was pre-incubated for 10 minutes at 25° C. and the reaction initiated by addition of 8 μL [γ-33P]ATP (final concentration 50 μM). […]
After removing mean background values for all of the data points, Ki(app) data were calculated from non-linear regression analysis of the initial rate data using the Prism software package (GraphPad Prism version 3.0cx for Macintosh, GraphPad Software, San Diego Calif., USA). […]

T1 sequence (P53350 20-338): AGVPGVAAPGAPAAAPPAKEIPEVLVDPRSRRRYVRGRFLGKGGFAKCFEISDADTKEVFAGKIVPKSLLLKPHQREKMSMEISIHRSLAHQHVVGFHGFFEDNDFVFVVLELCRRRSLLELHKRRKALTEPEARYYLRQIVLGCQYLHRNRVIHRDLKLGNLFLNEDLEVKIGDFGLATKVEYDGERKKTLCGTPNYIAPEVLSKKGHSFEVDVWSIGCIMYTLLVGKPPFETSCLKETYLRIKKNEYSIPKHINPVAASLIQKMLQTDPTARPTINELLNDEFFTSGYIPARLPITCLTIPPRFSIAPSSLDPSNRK

| SMILES | Ki (lower bound in nM, upper bound in μM, protocol not specified) [nM] | Ki (the text does not say which of the two Plk1 protocols was used) [nM] |
| --- | --- | --- |
| CC(Oc1cc(-c2cc(N)n[nH]2)sc1C(N)=O)c1ccccc1Cl (centres unmarked) [I-2, 5-(5-Amino-2H-pyrazol-3-yl)-3-[1-(2-chloro-phenyl)-ethoxy]-thiophene-2-carboxylic acid amide] | 100 to 4000 |  |
| CC(Oc1cc(-n2ccnc2)sc1C(N)=O)c1ccccc1Cl (centres unmarked) [I-1, 3-[1-(2-Chloro-phenyl)-ethoxy]-5-imidazol-1-yl-thiophene-2-carboxylic acid amide] |  | 10 to 100 |
